Results published in patent publication US5955053A, “Metal chelates as pharmaceutical imaging agents, processes of making such and uses thereof” (Emory University, priority 1996, dated 1999).
Read-outs that look alike come from different tables or passages of the source. Blank lines part the entries; values can stand above or below the compound they belong to.

Experiments:
[1] = physiological pH; cited from earlier work
[2] = Biodistribution in normal rats; assay type: in vivo, rat; conditions: ^99m Tc
Protocol: Tracheostomy was performed in an anesthetized rat and the left jugular vein was cannulated with one piece of PE-50 tubing for injection of the ^99m Tc radiopharmaceutical. The bladder was catheterized utilizing heat flared PE-50 tubing for urine collection. […] Each animal was sacrificed at the conclusion of the dynamic study and simultaneous static images of the isolated lungs, heart, liver, spleen, stomach, kidneys, bowel and bladder with urine were acquired as well as a static image of the rat carcass without the organs. Total counts for the injected dose were determined from the sum of the isolated organ counts and the carcass counts decay corrected to the time of organ imaging. Regions of interest were drawn around each organ to determined the percent injected dose in each organ.

[3] = Normal volunteer studies: plasma clearance, urinary excretion and imaging; assay type: in vivo, human; conditions: humans; for Clearance rate (EC/OIH): ± spread as printed
Protocol: ^99m Tc LL-EC, DD-EC and DL-EC were each evaluated in three normal male volunteers. The HPLC purified complexes and phosphate-buffered saline (pH 7.0) were passed through a SEP-PAK Plus C18 cartridge (primed with 1 ml ethanol) and a sterile Millex-GS 0.22 μm filter unit into a sterile, pyrogen-free empty vial. The final concentration was ~2.0 mCi/2.5 ml and the final pH ranged from 5.7 to 7.4. Test samples of each complex were sterile and pyrogen free. Approximately 2 mCi of each ^99m Tc complex were coinjected with 200 μCi of I-131 OIH and plasma samples were obtained at 5, 10, 15, 20, 30 45, 60 and 90 minutes postinjection. The plasma clearances of I-131 OIH and each EC complex were determined using the single injection, two-compartment model of Sapirstein et al., Am. J. Physiol. 181:330-336. The volunteers voided at 30, 90 and 180 minutes postinjection to determine the percent dose in the urine at each time period. A urine sample from the 30 minute urine collection was obtained for HPLC analysis from one of the normal volunteers and analyzed for each complex. One volunteer was imaged with each complex using a simultaneous acquisition with a 20% window centered over the 363 KeV photopeak of I-131 and a second 20% window over the 140 KeV photopeak of ^99m Tc. Data were acquired in a 128×128 matrix using a three phase dynamic acquisition: phase 1 consisted of 24 two second frames, phase 2 consisted of 16 fifteen second frames and phase 3 consisted of 40 thirty second frames. Data were acquired using a general Electric (Milwaukee, Wis.) Star-Cam computer fitted with a high energy collimator. All studies were performed with the approval of the Human Investigations Committee and a signed consent form was obtained.

[4] = Renal clearance / renal excretion in rats (statements in words); assay type: in vivo, rat; conditions: for Renal clearance of DD-EC compared to LL-EC: vs LL-isomer
Protocol: Tracheostomy was performed in an anesthetized rat and the left jugular vein was cannulated with one piece of PE-50 tubing for injection of the ^99m Tc radiopharmaceutical. The bladder was catheterized utilizing heat flared PE-50 tubing for urine collection. A bolus injection of the radiopharmaceutical (400-500 μCi/0.25 ml) was given and the rat was imaged (1 frame/10 s) for 22 minutes (130 frames) using a gamma camera. Each animal was sacrificed at the conclusion of the dynamic study and simultaneous static images of the isolated lungs, heart, liver, spleen, stomach, kidneys, bowel and bladder with urine were acquired as well as a static image of the rat carcass without the organs. Total counts for the injected dose were determined from the sum of the isolated organ counts and the carcass counts decay corrected to the time of organ imaging. Regions of interest were drawn around each organ to determined the percent injected dose in each organ.

[5] = Stability of metal chelates; assay type: physicochemical
[6] = in vivo; cited from earlier work
[7] = in vivo; cited from earlier work; remark: listed apart in the source
[8] = mice; cited from earlier work
[9] = in vivo; cited from earlier work; remark: listed apart in the source
[10] = mice and baboons; cited from earlier work
[11] = cited from earlier work
[12] = cited from earlier work; remark: listed apart in the source
[13] = normal volunteers; increases in renal failure; cited from earlier work
[14] = cited from earlier work; remark: listed apart in the source
[15] = % of that of OIH; cited from earlier work
[16] = in vivo; cited from earlier work; remark: listed apart in the source

Biodistribution: Bladder ([2]; 22 minutes post injection): 63.2% of total activity
Biodistribution: Carcass ([2]; 22 minutes post injection): 25.4% of total activity
Biodistribution: Intestines ([2]; 22 minutes post injection): 2.6% of total activity
Biodistribution: Kidneys ([2]; 22 minutes post injection): 5.4% of total activity
Biodistribution: Liver ([2]; 22 minutes post injection): 2.9% of total activity
Biodistribution: Stomach ([2]; 22 minutes post injection): < 1% of total activity
Clearance rate (EC/OIH) [3]: 82 ±8%
Renal clearance of DD-EC compared to LL-EC [4]: superior to L,L-EC in rats
Renal clearance / excretion compared to MAG3 ([4]; vs ^99m Tc MAG3, listed as DD-EC): significantly higher
Compound: O=C(O)[C@@H](CS)NCCN[C@H](CS)C(=O)O (99mTc complex, metal not drawn) [D,D-EC, D,D-ethylenedicysteine]
Dianionic form [1]: 80%
Monoanionic form [1]: 20%
Imaging properties [3]: excellent imaging properties
Rate of excretion in the urine [3]: excreted at essentially the same rate in the urine
Renal clearance of DD-EC compared to LL-EC ([4]; listed as DD-EC): significantly higher than that of its LL-isomer
Renal clearance / excretion compared to MAG3 ([4]; vs ^99m Tc MAG3): more rapid renal clearance than ^99m Tc MAG3

Compound: CC(C)(S)C(=O)NCCCNC(=S)NCCC(=O)O [(Me)2 -TAPTU-EtCOOH, dimethylthioacetamidepropylthiourea-ethylCOOH]
Stability compared with corresponding thioacetamidethiourea derivative [5]: greater stability than the corresponding thioacetamidethiourea derivative
Stability compared with corresponding thioacetamidethiourea derivative ([5]; listed as dimethyl-TAPTU-EtCOOH): more stable than the corresponding thioacetamide-thiourea derivative

Biodistribution: Bladder ([2]; 30 minutes post injection): 58.2% of total activity
Biodistribution: Carcass ([2]; 30 minutes post injection): 19.8% of total activity
Biodistribution: Intestines ([2]; 30 minutes post injection): 6.4% of total activity
Biodistribution: Kidneys ([2]; 30 minutes post injection): 7.2% of total activity
Biodistribution: Liver ([2]; 30 minutes post injection): 4.8% of total activity
Biodistribution: Stomach ([2]; 30 minutes post injection): 1.9% of total activity
Removal by the kidneys [4]: rapid and selective removal
Uptake in other major organs [4]: only trace amounts
Compound: L-cysteinylethylenepyridine carboxamide [L-CEPIC]
Renal clearance / excretion compared to MAG3 ([4]; vs ^99m Tc MAG3): even more rapidly excreted by the kidneys than ^99m Tc MAG3

Compound: ^99m Tc mercaptoacetylglycylglycyl-L-alanine [MAG2-Ala]
Characteristics as imaging agents [6]: promising characteristics as imaging agents

Compound: ^99m Tc L,L-ethylenedicysteine diethyl ester [LL-ECD]
Brain perfusion agent [7]: good brain perfusion agent

Biodistribution: Bladder ([2]; 22 minutes post injection): 45.6% of total activity
Biodistribution: Carcass ([2]; 22 minutes post injection): 22.6% of total activity
Biodistribution: Intestines ([2]; 22 minutes post injection): 1.8% of total activity
Biodistribution: Kidneys ([2]; 22 minutes post injection): 24.4% of total activity
Biodistribution: Liver ([2]; 22 minutes post injection): 4.5% of total activity
Biodistribution: Stomach ([2]; 22 minutes post injection): < 1% of total activity
Clearance rate (EC/OIH) [3]: 70 ±3%
Compound: O=C([O-])[C@H](C[S-])NCCN[C@@H](CS)C(=O)[O-].[O]=[Tc+3] [L,L-EC, L,L-ethylenedicysteine, reference compound]
Dianionic form [1]: 80%
Monoanionic form [1]: 20%
Excretion into the urine [8]: rapidly and efficiently excreted into the urine in mice
Excretion by the kidneys [9]: excreted rapidly and efficiently by the kidneys
Comparison to enantiomer DD-EC [10]: superior to the enantiomer ^99m Tc DD-EC
Pharmacokinetic properties relative to OIH and MAG3 [10]: more closely approached those of OIH than the properties of MAG3
Rate of excretion in the urine [3]: excreted at essentially the same rate in the urine

Renal clearance / excretion compared to MAG3 ([4]; vs ^99m Tc MAG3): superior renal clearance
Compound: thioacetamidethiourea-ethylCOOH [TATU-EtCOOH]

Rate of renal clearance [4]: cleared at a moderate rate
Compound: thioacetamidethiourea-para-phenylCOOH [TATU-pPhCOOH]

Rate of excretion in the urine [3]: slower rate of excretion
Clearance rate (EC/OIH) [3]: 40 ±5%
Compound: D,L-ethylenedicysteine [DL-EC]

Compound: ^99m Tc mercaptoacetylglycylglycyl-L-asparagine [MAG2-Asn]
Characteristics as imaging agents [6]: promising characteristics as imaging agents

Compound: ^99m Tc mercaptoacetylglycylglycyl-L-glutamine [MAG2-Gln]
Characteristics as imaging agents [6]: promising characteristics as imaging agents

Compound: ^99m Tc mercaptoacetylglycylglycyl-taurine
Comparison to MAG3 in dogs [11]: inferior to ^99m Tc MAG3 in dogs

Compound: O=C(O)CNC(=O)c1ccccc1[131I] [OIH, ^131 I-orthohippurate]
Clearance relative to PAH ([12]; % of the clearance of PAH): 83%

Biodistribution: Bladder ([2]; 22 minutes post injection): 57% of total activity
Biodistribution: Carcass ([2]; 22 minutes post injection): 14% of total activity
Biodistribution: Intestines ([2]; 22 minutes post injection): 5% of total activity
Biodistribution: Kidneys ([2]; 22 minutes post injection): 23% of total activity
Biodistribution: Liver ([2]; 22 minutes post injection): 1% of total activity
Biodistribution: Stomach ([2]; 22 minutes post injection): < 1% of total activity
Compound: O=C([O-])CN=C([O-])CN=C([O-])CN=C([O-])C[S-].[O]=[99Tc+3] [MAG3, technetium-99m (^99m Tc) mercaptoacetyltriglycine, reference compound]
Transport into the small intestine via the hepatobiliary system [13]: a small percentage
Plasma-protein binding [14]: very high
Clearance relative to OIH [15]: 50-60%
Clearance compared to DTPA ([12]; in vivo): higher clearance

Compound: C[C@H](NC(=O)CNC(=O)CS)C(=O)NCC(=O)O [MAGAG, mercaptoacetylglycylalanylglycine]
Comparison of diastereomers to MAG3 [16]: one diastereomer comparable and the other considerably inferior
